According to PMC7515946, “Targeting of Perforin Inhibitor into the Brain Parenchyma Via a Prodrug Approach Can Decrease Oxidative Stress and Neuroinflammation and Improve Cell Survival” (Molecular Neurobiology, 2020):

Experiments:
[1] = molecular target: T1, purified human β-site amyloid precursor protein (APP) cleaving enzyme 1 (BACE1) (Homo sapiens, UniProt P56817); assay: BACE1 FRET inhibition assay; type: biochemical; conditions: 1 and 10 μM, respectively, 30 min
T1 construct: purchased AnaSpec, Inc. (Fremont, CA, USA), SensoLyte 520 BACE1 Assay kit
Text: A fluorometric assay was used to screen the inhibitory effect of the studied compounds on purified human β-site amyloid precursor protein (APP) cleaving enzyme 1 (BACE1) using a fluorescence resonance energy transfer (FRET) peptide technique (SensoLyte© 520 BACE1 Assay kit, AnaSpec, Inc., Fremont, CA, USA) according to the manufacturer’s protocol. […] The sequence of the FRET peptide has been derived from the β-secretase cleavage site of β-amyloid precursor protein (APP) with Swedish mutation, which enhances β-secretase to process APP resulting in an early onset of AD. Thus, active β-secretase cleaved the FRET substrate into two separate fragments resulting in the release of HiLyte™ Fluor 488 fluorescence that was measured by the Envision plate reader (EnVision, Perkin Elmer, Waltham, MA, USA) at λex 490 nm and λem 520 nm.

[2] = parameters: method as in PMID 26705152; conditions: cited from earlier work

T1 sequence (P56817 22-501 limits assumed): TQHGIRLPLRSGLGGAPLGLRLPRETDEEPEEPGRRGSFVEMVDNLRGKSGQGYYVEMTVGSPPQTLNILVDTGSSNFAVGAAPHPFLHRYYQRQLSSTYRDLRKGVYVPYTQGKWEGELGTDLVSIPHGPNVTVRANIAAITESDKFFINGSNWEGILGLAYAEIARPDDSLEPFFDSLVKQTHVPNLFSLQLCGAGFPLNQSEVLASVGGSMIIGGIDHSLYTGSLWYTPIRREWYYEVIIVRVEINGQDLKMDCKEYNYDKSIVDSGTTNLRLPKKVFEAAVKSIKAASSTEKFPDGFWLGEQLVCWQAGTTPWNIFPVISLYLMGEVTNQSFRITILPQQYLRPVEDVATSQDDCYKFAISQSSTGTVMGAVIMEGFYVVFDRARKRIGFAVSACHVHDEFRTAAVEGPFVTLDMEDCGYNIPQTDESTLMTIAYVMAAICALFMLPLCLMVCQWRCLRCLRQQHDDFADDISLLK

O=C1OCc2cc(-c3ccc(-c4ccc(CO)cc4)s3)ccc21 [PFI]
Inhibition of BACE1 activity [1]: 71–96%

N[C@H](Cc1cccc(C(=O)OCc2ccc(-c3ccc(-c4ccc5c(c4)COC5=O)s3)cc2)c1)C(=O)O [PFI-PD]
Stability in human plasma [2]: completely stable
